Data reported in US12697315B2, “Treatment for interstitial lung disease” (United Therapeutics Corporation, priority 2020, dated 2026).

How the values were obtained:
NT-proBNP = assay: Plasma NT-proBNP level, INCREASE; format: in vivo, human; details: for NT-proBNP treatment ratio (ratio of ratios between treatment groups): vs placebo, week 16
Procedure: (§1) We enrolled patients with interstitial lung disease and pulmonary hypertension (documented by right heart catheterization) in a multicenter, randomized, double-blind, placebo-controlled, 16-week trial. Patients were assigned in a 1:1 ratio to receive inhaled treprostinil, administered by means of an ultrasonic, pulsed-delivery nebulizer in up to 12 breaths (total, 72 μg) four times daily, or placebo. The primary efficacy end point was the difference between the two treatment groups in the change in peak 6-minute walk distance from baseline to week 16. Secondary end points included the change in N-terminal pro-B-type natriuretic peptide (NT-proBNP) level at week 16 and the time to clinical worsening.
(§2) The 6-minute walk test was performed and laboratory data were obtained at baseline and at weeks 4, 8, 12, and 16, or at the time of early discontinuation of treprostinil or placebo. Each 6-minute walk test was performed 10 to 60 minutes after the most recent dose of active drug or placebo, which is the time of peak plasma treprostinil exposure. A trough test was performed at week 15 at least 4 hours after the participant received a dose of treprostinil or placebo and at least 24 hours before the week 16 test. Pulse oximetry was performed immediately before, during, and after each 6-minute walk test. Measurement of N-terminal pro-B-type natriuretic peptide (NT-proBNP) levels and pulmonary function tests were performed at baseline and at weeks 8 and 16 (or at early discontinuation) after the patients recovered from the 6-minute walk test. The St. George's Respiratory Questionnaire (SGRQ), a quality-of-life measure, was completed at baseline and week 16 or at the time of early discontinuation.
(§3) The primary end point of the trial was the difference between the two groups in the change in peak 6-minute walk distance from baseline to week 16. Secondary efficacy end points were analyzed in the following hierarchical testing order: the change in NT-proBNP level from baseline to week 16, the time to clinical worsening, the change in 6-minute walk distance at peak plasma treprostinil level at week 12, and the change in 6-minute walk distance at trough treprostinil level at week 15. The time to clinical worsening was evaluated from the time of randomization until the patient's withdrawal from the trial and was defined as the time until the occurrence of any one of the following events: hospitalization for a cardiopulmonary indication, a decrease in 6-minute walk distance greater than 15% from baseline that was directly related to the disease under study at two consecutive visits and at least 24 hours apart, death from any cause, or lung transplantation.

[1] = test system: patients with interstitial lung disease and pulmonary hypertension; assay: 6-minute walk test, INCREASE; format: in vivo, human
Procedure: as §1, §2, §3
For the primary efficacy analysis, the change in 6-minute walk distance was analyzed by mixed-model repeated-measures methods, under the assumption that missing data were missing at random. The model included the change from baseline to peak 6-minute walk distance as the dependent variable, with treatment, week, and treatment-by-week interaction as fixed effects, and the baseline 6-minute walk distance as a covariate. A sensitivity analysis for the primary end point was performed by means of a multiple imputation approach with a multivariate normal imputation model according to the Markov chain Monte Carlo method. The imputation model included treatment group, all scheduled visits, the patient's sex, and the patient's age at randomization. If the result for the primary efficacy end point was significant, secondary efficacy end points were to be evaluated according to a hierarchical testing procedure. Confidence intervals have not been adjusted for multiplicity and can-not be used to infer definitive treatment effects for secondary efficacy end points.

[2] = test system: patients with interstitial lung disease and pulmonary hypertension; assay: Adverse events and serious adverse events, INCREASE; details: 16-week trial
Excerpt: Safety assessments consisted of the development of AEs, vital signs, clinical laboratory parameters, ECG parameters, hospitalizations due to cardiopulmonary indications, exacerbations of underlying lung disease, and oxygenation.
Safety end points included adverse events, abnormal laboratory results, oxygenation as measured by pulse oximetry (Spo2) and supplemental oxygen requirement, changes in pulmonary function test results, hospitalization for a cardiopulmonary indication, and investigator-reported exacerbations of underlying lung disease, defined as acute, clinically significant respiratory deterioration characterized by evidence of new widespread alveolar abnormality.

[3] = vs placebo, listed as Inhaled Treprostinil
[4] = vs placebo, listed as inhaled treprostinil

CCCCC[C@H](O)CC[C@@H]1[C@H]2Cc3cccc(OCC(=O)O)c3C[C@H]2C[C@H]1O [Inhaled treprostinil, treprostinil]
Change in plasma concentration of NT-proBNP from baseline to wk 16, Mean (±SD) change (NT-proBNP; 156 patients): -396.35 ± 1904.90 pg/mL | Change in plasma concentration of NT-proBNP from baseline to wk 16, Median (NT-proBNP; 156 patients): -22.65 pg/mL | reduction in NT-proBNP compared to placebo (NT-proBNP; Week 16): 42% | reduction in NT-proBNP levels from baseline (NT-proBNP; Week 16): 15% | NT-proBNP treatment ratio (ratio of ratios between treatment groups) (NT-proBNP; listed as Inhaled Treprostinil): ±0.58 ± 0.06 | NT-proBNP treatment ratio (ratio of ratios between treatment groups) (NT-proBNP; listed as inhaled treprostinil): 0.58 | NT-proBNP, Ratio to baseline (NT-proBNP; wk 16, LS mean of log-transformed data ± SE): 0.85 ± 0.06 | Change in peak 6-minute walk distance from baseline to wk 16 ([1]; LS mean ± SE, MMRM): 21.08 ± 5.12 m | Least-squares mean change in peak 6-minute walk distance from baseline to wk 12 ([1]; mean ± SE): 18.77 ± 4.99 m | Least-squares mean change in trough 6-minute walk distance from baseline to wk 15 ([1]; mean ± SE): 9.3 ± 5.5 m | Treatment effect, least-squares mean difference in change in peak 6-minute walk distance, baseline to wk 16 ([1]; vs placebo, MMRM, listed as Inhaled Treprostinil): 31.12 ± 7.25 m | Treatment effect, least-squares mean difference in change in peak 6-minute walk distance, baseline to wk 16 ([1]; vs placebo, MMRM, listed as inhaled treprostinil): 31.12 m | Treatment effect, least-squares mean difference in change in peak 6-minute walk distance, baseline to wk 16 ([1]; vs placebo, MMRM, listed as treprostinil): 31.12 m | Treatment effect, least-squares mean difference in peak 6-minute walk distance, baseline to wk 12 [1, 3]: 31.29 ± 7.07 m | Treatment effect, least-squares mean difference in trough 6-minute walk distance, baseline to wk 15 [1, 3]: 21.99 ± 7.7 m | Treatment effect, least-squares mean difference in peak 6-minute walk distance, baseline to wk 12 [1, 4]: 31.29 m | Treatment effect, least-squares mean difference in trough 6-minute walk distance, baseline to wk 15 [1, 4]: 21.99 m | between-group difference in change from baseline in peak 6-minute walk distance at week 16 ([1]; vs placebo, multiple imputation, Markov chain Monte Carlo): 30.97 m | patients with serious adverse events [2]: patients (23.3%) | Adverse event: Cough ([2]; N = 163): 71 (43.6) no. of patients (%) | Adverse event: Diarrhea ([2]; N = 163): 22 (13.5) no. of patients (%) | Adverse event: Dizziness ([2]; N = 163): 30 (18.4) no. of patients (%) | Adverse event: Dyspnea ([2]; N = 163): 41 (25.2) no. of patients (%) | Adverse event: Fatigue ([2]; N = 163): 23 (14.1) no. of patients (%) | Adverse event: Headache ([2]; N = 163): 45 (27.6) no. of patients (%) | Adverse event: NT-proBNP increased ([2]; N = 163): 9 (5.5) no. of patients (%) | Adverse event: Nausea ([2]; N = 163): 25 (15.3) no. of patients (%) | Adverse event: Oropharyngeal pain ([2]; N = 163): 18 (11.0) no. of patients (%) | Adverse event: Throat irritation ([2]; N = 163): 20 (12.3) no. of patients (%) | Any Serious Event, number of patients ([2]; N = 163): 38 patients | Patients with ≥1 adverse event ([2]; N = 163): 152 (93.3) no. (%) | Patients with ≥1 serious adverse event ([2]; N = 163): 38 (23.3) no. (%) | Serious adverse event: Abdominal pain ([2]; N = 163): 0 n | Serious adverse event: Acute kidney injury ([2]; N = 163): 0 n | Serious adverse event: Acute myocardial infarction ([2]; N = 163): 1 n | Serious adverse event: Acute respiratory failure ([2]; N = 163): 4 n | Serious adverse event: Acute right ventricular failure ([2]; N = 163): 1 n | Serious adverse event: Arrhythmia ([2]; N = 163): 1 n | Serious adverse event: Aspiration ([2]; N = 163): 0 n | Serious adverse event: Atrial fibrillation ([2]; N = 163): 0 n | Serious adverse event: B-cell lymphoma ([2]; N = 163): 1 n | Serious adverse event: Bradycardia ([2]; N = 163): 0 n | Serious adverse event: Bronchitis ([2]; N = 163): 2 n | Serious adverse event: Bronchopulmonary aspergillosis ([2]; N = 163): 1 n | Serious adverse event: Cardiac arrest ([2]; N = 163): 1 n | Serious adverse event: Cardiac failure ([2]; N = 163): 0 n | Serious adverse event: Cardiac failure acute ([2]; N = 163): 0 n | Serious adverse event: Cardiac failure congestive ([2]; N = 163): 1 n | Serious adverse event: Cardiogenic shock ([2]; N = 163): 0 n | Serious adverse event: Cardiopulmonary failure ([2]; N = 163): 1 n | Serious adverse event: Cellulitis ([2]; N = 163): 1 n | Serious adverse event: Cerebral haemorrhage ([2]; N = 163): 1 n | Serious adverse event: Chest pain ([2]; N = 163): 1 n | Serious adverse event: Chronic obstructive pulmonary disease ([2]; N = 163): 2 n | Serious adverse event: Chronic respiratory failure ([2]; N = 163): 2 n | Serious adverse event: Chronic right ventricular failure ([2]; N = 163): 0 n | Serious adverse event: Coagulopathy ([2]; N = 163): 0 n | Serious adverse event: Combined pulmonary fibrosis and emphysema ([2]; N = 163): 1 n | Serious adverse event: Cor pulmonale ([2]; N = 163): 1 n | Serious adverse event: Cor pulmonale acute ([2]; N = 163): 0 n | Serious adverse event: Coronary artery disease ([2]; N = 163): 0 n | Serious adverse event: Death with unknown cause ([2]; N = 163): 3 n | Serious adverse event: Disease progression ([2]; N = 163): 0 n | Serious adverse event: Dyspnoea ([2]; N = 163): 3 n | Serious adverse event: Epistaxis ([2]; N = 163): 0 n | Serious adverse event: Fluid overload ([2]; N = 163): 0 n | Serious adverse event: Haematochezia ([2]; N = 163): 0 n | Serious adverse event: Haemoptysis ([2]; N = 163): 1 n | Serious adverse event: Hyperglycaemia ([2]; N = 163): 1 n | Serious adverse event: Hypertension ([2]; N = 163): 0 n | Serious adverse event: Hypervolaemia ([2]; N = 163): 1 n | Serious adverse event: Hypoxia ([2]; N = 163): 1 n | Serious adverse event: Idiopathic pulmonary fibrosis ([2]; N = 163): 1 n | Serious adverse event: Influenza ([2]; N = 163): 1 n | Serious adverse event: Interstitial lung disease ([2]; N = 163): 3 n | Serious adverse event: Left ventricular failure ([2]; N = 163): 1 n | Serious adverse event: Lumbar vertebral fracture ([2]; N = 163): 0 n | Serious adverse event: Metabolic encephalopathy ([2]; N = 163): 0 n | Serious adverse event: Pain ([2]; N = 163): 0 n | Serious adverse event: Pain in extremity ([2]; N = 163): 1 n | Serious adverse event: Pneumonia ([2]; N = 163): 1 n | Serious adverse event: Pneumonia influenzal ([2]; N = 163): 0 n | Serious adverse event: Pneumothorax ([2]; N = 163): 1 n | Serious adverse event: Post procedural infection ([2]; N = 163): 0 n | Serious adverse event: Presyncope ([2]; N = 163): 0 n | Serious adverse event: Pulmonary congestion ([2]; N = 163): 0 n | Serious adverse event: Pulmonary hypertension ([2]; N = 163): 1 n | Serious adverse event: Pulmonary oedema ([2]; N = 163): 1 n | Serious adverse event: Respiratory distress ([2]; N = 163): 0 n | Serious adverse event: Respiratory failure ([2]; N = 163): 2 n | Serious adverse event: Right ventricular failure ([2]; N = 163): 1 n | Serious adverse event: Scleroderma ([2]; N = 163): 0 n | Serious adverse event: Sepsis ([2]; N = 163): 0 n | Serious adverse event: Syncope ([2]; N = 163): 1 n | Serious adverse event: Tachycardia ([2]; N = 163): 1 n | Serious adverse event: Transplant dysfunction ([2]; N = 163): 0 n | Serious adverse event: Upper respiratory tract infection ([2]; N = 163): 2 n | Serious adverse event: Urosepsis ([2]; N = 163): 0 n | Total no. of adverse events ([2]; N = 163): 890 | Total no. of adverse events leading to withdrawal of treprostinil or placebo ([2]; N = 163): 47 | Total no. of serious adverse events ([2]; N = 163): 53 | patients with serious adverse events ([2]; listed as inhaled treprostinil): 23.3%
